Consider three compounds from patent US11331268B2, “Taste masking product” (The University of Western Australia, priority 2016, dated 2022).

The conditions of series [1]: cited from earlier work.
Another series relates to Sprague Dawley rats. Nature of the series: Rat Brief-Access Taste Aversion (BATA) model. The format is in vivo. The protocol: The rat ‘Brief-Access Taste Aversion’ (BATA) model was used to assess the taste of the midazolam chocolate tablet formulation relative to control samples. Ten male Sprague Dawley rats (average weight […]) previously trained for the experiments were used and two independent tasting evaluations were conducted over 2 days.
Prior to the experiments, the rats were water-deprived for 22 hours but had access to food ad libitum. Each rat was placed into the Lickometer Davis Rig MS-160 (DiLog Instruments, Tallahassee, Fla., USA) for a 40-minute session where it would be presented with 16 sipper tubes mounted on a moving rack controlled by the Davis Collect Data software. The taste samples were each presented to the rat for 8 seconds, in a random order specified by the computer program. Over the 40-minute session, a sample would have been presented to the rat four times, with a 2-second water rinse given between samples. As the rats licked on the sipper, the number of licks was recorded electronically and transmitted to a database on a computer.
The 5 mg midazolam HCl chocolate tablets were assessed against control samples, which included deionized water, vehicle (water adjusted to pH 5 with HCl), 1 mg/mL solution of midazolam in the vehicle, a 2.5 mg/mL oral midazolam syrup manufactured by AUSPMAN, and chocolate placebo tablets. Simulating the advice to patients to chew the chocolate tablet and then swallow, the placebo and midazolam-loaded chocolate tablets were prepared for the taste evaluation by grinding each chocolate tablet in 2 mL of water, which mimics the volume of saliva, using a mortar and pestle. The resultant liquid preparations were then presented to the rats. […]
Aversion to the taste of a sample was indicated by a significant reduction in the number of licks when the sample was presented to the rats. […] Data was analysed using the RStudio software (https://www.rstudio.com) and applying the non-parametric Kruskal Wallis test with post-hoc Tukey's test for paired comparisons.

For series [2] the following is noted: cited from earlier work. The source holds these as a separate data set.

Counter-ions that a name gives are not always drawn. Like-named read-outs stand apart in the source and are kept apart here.

Take `Cc1ncc2n1-c1ccc(Cl)cc1C(c1ccccc1F)=NC2` [Midazolam, midazolam]: the values for the solubility in water in series [1] (low pH) and in series [1] (pH>5) were more than 2500 µg/mL and “less than 0.1 mg/ml”, respectively.

Regarding `Cc1ncc2n1-c1ccc(Cl)cc1C(c1ccccc1F)=NC2` [midazolam HCl, midazolam hydrochloride], the IC50 – broadly, the midpoint of a concentration-inhibition curve – with Sprague Dawley rats (Rattus norvegicus, midazolam HCl standard solutions in vehicle (water pH 5), n=2, read-out: IC50 (dose-response of number of licks)) was determined as 300 ± 290 µg/mL. In the series on Sprague Dawley rats (rodent model), the “detection threshold for the bitter taste” value was “about 0.03 mg/ml”. For the same compound, the “concentration receiving comparable numbers of licks to blank vehicle” value with Sprague Dawley rats (standard solutions in vehicle) is given as “up to 0.03 mg/mL”.

For the compound `COc1cccc(C2(O)CCCCC2CN(C)C)c1` (stereo not drawn) [tramadol HCl, tramadol hydrochloride], the “solubility in aqueous media” value in series [2] is not above 2000 µg/mL.
